Reference: ChEMBL document CHEMBL1127984, “Beneficial replacement of the P1 phenylalanine side chain in HIV-1 protease inhibitors of the difluorostatone type” (Bioorg Med Chem Lett, 1994)
pEC50, pIC50, pKi: −log10 of the molar value.

What was measured:
[1] = target: Human immunodeficiency virus type 1 protease (Human immunodeficiency virus 1, UniProt Q72874); assay: Compound was tested for inactivation of purified HIV-1 protease in vitro
MT4 [2] = assay: […]; assay type: functional; conditions: Homo sapiens
MT4 [3] = assay: Effective dose that inhibits cellular growth of MT-4 cells infected with HIV-1 RF strain; assay type: functional, cell-based; conditions: Homo sapiens
[4] = Ratio between Cytotoxic dose and effective dose was determined; assay type: functional
C8166 [5] = assay: Effective dose that inhibits cellular growth of C8166 cells infected with HIV-1 RF strain; assay type: functional, cell-based; conditions: Homo sapiens
C8166 [6] = assay: Effective dose that inhibits cellular growth of C8166 cells infected with HIV-2 rod strain; assay type: functional, cell-based; conditions: Homo sapiens
CCRF-CEM = assay: Effective dose that inhibits cellular growth of CEM cells infected with HIV-1 IIIB strain; assay type: functional, cell-based; conditions: Homo sapiens
C8166 [7] = assay: Cytotoxic dose against HIV-1 was determined in C8166 cells; assay type: functional; conditions: Homo sapiens
H9 [8] = assay: Effective dose that inhibits cellular growth of H9 cells infected with HIV-1 IIIB strain; assay type: functional, cell-based; conditions: Homo sapiens
H9 [9] = assay: Effective dose that inhibits cellular growth of H9 cells infected with HIV-1 RF strain; assay type: functional, cell-based; conditions: Homo sapiens
H9 [10] = assay: Effective dose that inhibits cellular growth of H9 cells infected with HIV-1 U455 strain; assay type: functional, cell-based; conditions: Homo sapiens
JM1 [11] = assay: Cytotoxic dose against HIV-1 GB8 strain was determined in JM cells; assay type: functional; conditions: Homo sapiens
JM1 [12] = assay: Effective dose that inhibits cellular growth of JM cells infected with HIV-1 GB8 strain; assay type: functional, cell-based; conditions: Homo sapiens
MT2 [13] = assay: Effective dose that inhibits cellular growth of MT2 cells infected with HIV-1 105/A strain; assay type: functional, cell-based; conditions: Homo sapiens
MT2 [14] = assay: Effective dose that inhibits cellular growth of MT2 cells infected with HIV-1 105/F strain; assay type: functional, cell-based; conditions: Homo sapiens
Homo sapiens = species on record: Homo sapiens; assay: Effective dose that inhibits cellular growth of PBMCs cells infected with HIV-1 CCI strain; assay type: functional, cell-based; conditions: PBMC
C8166 [15] = assay: Effective dose that inhibits cellular growth of C8166 cells infected with SIV mac251 strain; conditions: Homo sapiens

`CC(C)C[C@H](NC(=O)OCc1ccccc1)C(=O)NC(Cc1ccc(OCc2ccccc2)cc1)C(=O)C(F)(F)C(=O)NCc1ccccc1` (some centres undefined) showed a pIC50 [1] of 7.82, a CC50 (MT4 [2]) of 3.2 µM and a pEC50 (MT4 [3]) of 6.72. The Ratio [4] was 17.

Compound `CC(C)[C@H](NC(=O)OCc1ccccc1)C(=O)NC(Cc1ccccc1)C(=O)C(F)(F)C(=O)N1CCOCC1` (some centres undefined) has a pKi [1] of 7.15, a CC50 (MT4 [2]) greater than 100 µM and a pEC50 (MT4 [3]) of 4.30. The Ratio [4] was greater than 2.

`CC(C)[C@H](NC(=O)OCc1ccccc1)C(=O)NC(Cc1ccc(OCc2ccccc2)cc1)C(=O)C(F)(F)C(=O)N(C)Cc1ccccc1` (some centres undefined) showed a pKi [1] of 9.40, a CC50 (MT4 [2]) greater than 100 µM and a pEC50 (MT4 [3]) of 6.55. The Ratio [4] was greater than 300.

`CC(C)[C@H](NC(=O)OCc1ccccc1)C(=O)NC(Cc1ccc(OCc2ccccc2)cc1)C(=O)C(F)(F)C(=O)N1CCOCC1` (some centres undefined) gave a pKi [1] of 8.30, a CC50 (MT4 [2]) of 64 µM and a pEC50 (MT4 [3]) of 5.49. It also gave a Ratio [4] of 20.

Compound `CC(C)[C@H](NC(=O)OCc1ccccc1)C(=O)NC(Cc1ccccc1)C(=O)C(F)(F)C(=O)N1CCc2ccccc2C1` (some centres undefined) has a pIC50 [1] of 7.30.

`CC(C)[C@H](NC(=O)OCc1ccccc1)C(=O)NC(Cc1ccc(OCc2ccccc2)cc1)C(=O)C(F)(F)C(=O)NCc1ccccc1` (some centres undefined) showed a pEC50 (C8166 [5]) of 7.00, a pEC50 (C8166 [6]) of 6.46 and a pEC50 (CCRF-CEM) of 6.14. The CC50 (C8166 [7]) was greater than 100 µM, the pEC50 (H9 [8]) was 6.54 and the pEC50 (H9 [9]) was 7.25. It also gave a pEC50 (H9 [10]) of 6.38, a pKi [1] of 8.30 and a CC50 (JM1 [11]) greater than 100 µM. For the same compound, the pEC50 (JM1 [12]) was 6.85, the CC50 (MT4 [2]) was greater than 100 µM and the pEC50 (MT4 [3]) was 6.52. For the same compound, the pEC50 (MT2 [13]) was 6.64, the pEC50 (MT2 [14]) was 6.42 and the pEC50 (Homo sapiens) was 6.25. The Ratio [4] was greater than 300 and the pEC50 (C8166 [15]) was 6.20.

Work on `CC(C)[C@H](NS(=O)(=O)Cc1ccccc1)C(=O)NC(Cc1ccc(OCc2ccccc2)cc1)C(=O)C(F)(F)C(=O)NCc1ccccc1` (some centres undefined) yielded a pIC50 [1] of 4.32.

`CCN(Cc1ccccc1)C(=O)C(F)(F)C(=O)C(Cc1ccc(OCc2ccccc2)cc1)NC(=O)[C@@H](NC(=O)OCc1ccccc1)C(C)C` (some centres undefined) showed a pIC50 [1] of 7.82, a CC50 (MT4 [2]) of 10 µM and a pEC50 (MT4 [3]) of 5.10. The Ratio [4] was roughly 1.

In the case of `O=C(NC(C(=O)NC(Cc1ccc(OCc2ccccc2)cc1)C(=O)C(F)(F)C(=O)NCc1ccccc1)C1CCCCC1)OCc1ccccc1` (centres undefined), the pIC50 [1] was 7.15, the CC50 (MT4 [2]) was greater than 100 µM and the pEC50 (MT4 [3]) was less than 4.00.

Work on `O=C(NC(C(=O)NC(Cc1ccc(OCc2ccccc2)cc1)C(=O)C(F)(F)C(=O)NCc1ccccc1)C1CCCC1)OCc1ccccc1` (centres undefined) yielded a pIC50 [1] of 8.22, a CC50 (MT4 [2]) greater than 100 µM and a Ratio [4] greater than 33.

`CC(C)[C@H](NC(=O)OCc1ccccc1)C(=O)NC(Cc1ccc(OCc2ccccc2)cc1)C(=O)C(F)(F)C(=O)N1CCc2ccccc2C1` (some centres undefined) showed a pIC50 [1] of 8.70, a CC50 (MT4 [2]) greater than 100 µM and a pEC50 (MT4 [3]) of 6.44. It also gave a Ratio [4] greater than 280.

Work on `CC(C)[C@H](NC(=O)CCc1cccnc1)C(=O)NC(Cc1ccc(OCc2ccccc2)cc1)C(=O)C(F)(F)C(=O)NCc1ccccc1` (some centres undefined) yielded a pIC50 [1] of 8.10, a CC50 (MT4 [2]) greater than 100 µM and a pEC50 (MT4 [3]) of 6.49. For the same compound, the Ratio [4] was greater than 100.

With `CC(C)[C@H](NC(=O)OCc1ccccc1)C(=O)NC(Cc1ccccc1)C(=O)C(F)(F)C(=O)NCc1ccccc1` (some centres undefined) the pKi [1] was 9.00, the CC50 (MT4 [2]) was 23 µM and the pEC50 (MT4 [3]) was 5.30. It also gave a Ratio [4] of roughly 5.

Work on `CC(C)[C@H](NC(=O)OC(C)(C)C)C(=O)NC(Cc1ccc(OCc2ccccc2)cc1)C(=O)C(F)(F)C(=O)NCc1ccccc1` (some centres undefined) yielded a CC50 (MT4 [2]) of 10 µM and a pEC50 (MT4 [3]) of less than 5.00.
